Data taken from PMC6628435, “Chemical Synthesis, Proper Folding, Nav Channel Selectivity Profile and Analgesic Properties of the Spider Peptide Phlotoxin 1” (Toxins, 2019).
Bridge positions count the residues as written; N and C are the ends. Peptide text beside a SMILES is read from it.

Tests used:
hNav1.4 = target: T1, hNav1.4 (Homo sapiens, UniProt P35499); assay: Automated patch-clamp dose-response on hNav1.4 expressed in CHO cells; format: cell-based; conditions: 4 to 13 cells per concentration, read-out: calculated IC50
T1 construct: expressed in transfected cells; host or cells: CHO cells

Nav1.7/β1 = target: T2, Nav1.7/β1 (Rattus norvegicus, UniProt O08562); assay: Two-electrode voltage-clamp on Xenopus laevis oocytes expressing Nav1.7/β1; format: cell-based
T2 construct: expressed in transfected cells; host or cells: Xenopus laevis oocytes injected with cRNA

hNav1.7 = target: T3, hNav1.7 (Homo sapiens, UniProt Q15858); assay: Manual patch clamp, reversibility of block of hNav1.7 currents; format: cell-based
T3 construct: expressed in transfected cells
From the text: Following our initial screen for the selectivity of synthetic PhlTx1 and the discovery that Nav1.7 was the main target, we decided to further evaluate the activity of PhlTx1. We used a CHO mammalian cell line expressing the human Nav1.7 instead of Xenopus oocytes for the pharmacological evaluation. To this end, we used an automated patch-clamp system, the Nanion syncropatch 384PE, and a standardized robotic method from Beckmann to apply PhlTx1 in the recording chambers and collect the kinetic information of Nav1.7 current from a high number of Nav1.7-expressing cells. The syncropatch 384PE has the potential to record from 384 cells at a time. 100-ms pulses from −100 mV to −10 mV were applied at a frequency of 0.2 Hz and various concentrations of PhlTx1 were applied to the cells. An example of a Nav1.7 current recording is illustrated in Figure 6A along with the effect of 100 nM PhlTx1. It is of interest to note that current inhibition develops over time at this PhlTx1 concentration that is above 50% at the end of a 13-min application time. […] Note that the highest achievable inhibition was 85%–92% for the two most efficient concentrations (333 nM and 1 μM). The time constant of inhibition was concentration-dependent as expected and could be fitted with decreasing mono-exponentials with time constants of 253 s (33 nM, n = 4), 159 s (100 nM, n = 8), 97 s (333 nM, n = 6) and 36 s (1 μM, n = 8). […] Using a manual patch clamp, which is better suited to investigate current recovery from block than an automated patch clamp that requires several washing steps, we investigated the reversibility properties of a PhlTx1 block. […] After 16 min of washout of 100 nM PhlTx1, we observed a maximum of 32% recovery of the blocked current that occurred with a time constant of 303 s. Since Nav1.4 and Nav1.6 were the two most sensitive channels to the PhlTx1 block, we also performed dose-response curves for these two channels with the automated patch clamp system.
Figure 6 PhlTx1 inhibition of Nav1.7 channels expressed in a mammalian cell line. […]

hNav1.6 = target: T4, hNav1.6 (Homo sapiens, UniProt Q9UQD0); assay: Automated patch-clamp dose-response on hNav1.6 expressed in HEK293 cells; format: cell-based; conditions: 15 to 23 cells per concentration, read-out: calculated IC50
T4 construct: expressed in transfected cells; host or cells: HEK293 cells
From the text: Following our initial screen for the selectivity of synthetic PhlTx1 and the discovery that Nav1.7 was the main target, we decided to further evaluate the activity of PhlTx1. We used a CHO mammalian cell line expressing the human Nav1.7 instead of Xenopus oocytes for the pharmacological evaluation. To this end, we used an automated patch-clamp system, the Nanion syncropatch 384PE, and a standardized robotic method from Beckmann to apply PhlTx1 in the recording chambers and collect the kinetic information of Nav1.7 current from a high number of Nav1.7-expressing cells. The syncropatch 384PE has the potential to record from 384 cells at a time. 100-ms pulses from −100 mV to −10 mV were applied at a frequency of 0.2 Hz and various concentrations of PhlTx1 were applied to the cells. An example of a Nav1.7 current recording is illustrated in Figure 6A along with the effect of 100 nM PhlTx1. […]
PhlTx1 and other Nav1.7-acting toxins were investigated on CHO cells expressing the human Nav1.7 channel using the Automated patch-clamp system from Nanion (München, Germany), the SyncroPatch 384PE. […] Percentages of current inhibitions were measured at the end of a 12- to 15-min application time (12-min for fast blocking toxins; 15-min for slow blocking ones). […]

human Nav1.7 channel = conditions: ref [47]; cited from earlier work

T3 sequence (Q15858 whole entry): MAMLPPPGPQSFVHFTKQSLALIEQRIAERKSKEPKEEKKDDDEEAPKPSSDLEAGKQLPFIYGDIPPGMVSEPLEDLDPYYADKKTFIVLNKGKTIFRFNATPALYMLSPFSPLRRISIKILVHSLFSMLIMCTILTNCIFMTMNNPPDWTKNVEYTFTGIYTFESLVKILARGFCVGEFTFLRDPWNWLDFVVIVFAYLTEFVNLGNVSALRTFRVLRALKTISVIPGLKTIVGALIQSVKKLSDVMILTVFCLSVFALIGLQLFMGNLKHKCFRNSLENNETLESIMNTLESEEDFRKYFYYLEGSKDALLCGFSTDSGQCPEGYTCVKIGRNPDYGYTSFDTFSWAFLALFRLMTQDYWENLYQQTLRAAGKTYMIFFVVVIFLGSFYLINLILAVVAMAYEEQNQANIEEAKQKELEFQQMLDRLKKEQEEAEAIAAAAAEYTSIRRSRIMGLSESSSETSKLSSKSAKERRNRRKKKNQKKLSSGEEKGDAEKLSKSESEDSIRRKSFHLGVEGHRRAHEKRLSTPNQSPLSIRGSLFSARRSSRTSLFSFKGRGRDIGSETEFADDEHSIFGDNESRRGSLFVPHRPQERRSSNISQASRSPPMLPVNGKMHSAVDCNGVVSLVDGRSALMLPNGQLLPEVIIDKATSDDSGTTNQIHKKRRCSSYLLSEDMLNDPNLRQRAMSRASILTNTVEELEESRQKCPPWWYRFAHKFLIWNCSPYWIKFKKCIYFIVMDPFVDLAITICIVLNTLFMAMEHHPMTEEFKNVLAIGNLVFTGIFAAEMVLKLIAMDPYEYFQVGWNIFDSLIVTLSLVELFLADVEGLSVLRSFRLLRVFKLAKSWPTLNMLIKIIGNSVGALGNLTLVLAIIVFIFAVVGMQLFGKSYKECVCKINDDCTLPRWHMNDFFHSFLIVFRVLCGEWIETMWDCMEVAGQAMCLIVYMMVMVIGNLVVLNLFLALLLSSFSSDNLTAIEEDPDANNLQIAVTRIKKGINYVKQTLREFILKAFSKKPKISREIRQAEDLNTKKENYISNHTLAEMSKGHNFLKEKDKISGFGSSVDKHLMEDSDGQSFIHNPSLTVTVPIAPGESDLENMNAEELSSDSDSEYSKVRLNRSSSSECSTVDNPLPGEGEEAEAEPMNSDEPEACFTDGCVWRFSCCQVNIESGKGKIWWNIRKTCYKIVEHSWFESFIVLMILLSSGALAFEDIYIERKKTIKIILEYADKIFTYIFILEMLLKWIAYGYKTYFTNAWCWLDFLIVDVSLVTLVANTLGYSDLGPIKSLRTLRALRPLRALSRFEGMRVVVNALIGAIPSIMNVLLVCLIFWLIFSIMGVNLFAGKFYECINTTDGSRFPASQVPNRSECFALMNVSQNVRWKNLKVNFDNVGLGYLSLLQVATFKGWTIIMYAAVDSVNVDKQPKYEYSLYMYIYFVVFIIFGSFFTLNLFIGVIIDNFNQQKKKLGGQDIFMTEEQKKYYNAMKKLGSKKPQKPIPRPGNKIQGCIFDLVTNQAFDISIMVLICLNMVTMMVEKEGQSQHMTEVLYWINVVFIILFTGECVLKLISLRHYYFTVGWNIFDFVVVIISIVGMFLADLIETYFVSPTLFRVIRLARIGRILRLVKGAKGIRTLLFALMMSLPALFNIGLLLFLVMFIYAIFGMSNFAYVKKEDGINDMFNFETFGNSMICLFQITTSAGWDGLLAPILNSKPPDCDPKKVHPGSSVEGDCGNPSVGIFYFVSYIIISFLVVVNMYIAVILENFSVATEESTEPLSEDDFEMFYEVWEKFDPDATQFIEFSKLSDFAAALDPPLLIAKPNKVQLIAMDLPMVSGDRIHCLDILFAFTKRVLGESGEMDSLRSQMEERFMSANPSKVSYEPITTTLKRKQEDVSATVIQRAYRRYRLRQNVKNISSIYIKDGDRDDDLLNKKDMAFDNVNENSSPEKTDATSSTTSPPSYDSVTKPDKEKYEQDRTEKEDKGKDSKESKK
T2 sequence (O08562 whole entry): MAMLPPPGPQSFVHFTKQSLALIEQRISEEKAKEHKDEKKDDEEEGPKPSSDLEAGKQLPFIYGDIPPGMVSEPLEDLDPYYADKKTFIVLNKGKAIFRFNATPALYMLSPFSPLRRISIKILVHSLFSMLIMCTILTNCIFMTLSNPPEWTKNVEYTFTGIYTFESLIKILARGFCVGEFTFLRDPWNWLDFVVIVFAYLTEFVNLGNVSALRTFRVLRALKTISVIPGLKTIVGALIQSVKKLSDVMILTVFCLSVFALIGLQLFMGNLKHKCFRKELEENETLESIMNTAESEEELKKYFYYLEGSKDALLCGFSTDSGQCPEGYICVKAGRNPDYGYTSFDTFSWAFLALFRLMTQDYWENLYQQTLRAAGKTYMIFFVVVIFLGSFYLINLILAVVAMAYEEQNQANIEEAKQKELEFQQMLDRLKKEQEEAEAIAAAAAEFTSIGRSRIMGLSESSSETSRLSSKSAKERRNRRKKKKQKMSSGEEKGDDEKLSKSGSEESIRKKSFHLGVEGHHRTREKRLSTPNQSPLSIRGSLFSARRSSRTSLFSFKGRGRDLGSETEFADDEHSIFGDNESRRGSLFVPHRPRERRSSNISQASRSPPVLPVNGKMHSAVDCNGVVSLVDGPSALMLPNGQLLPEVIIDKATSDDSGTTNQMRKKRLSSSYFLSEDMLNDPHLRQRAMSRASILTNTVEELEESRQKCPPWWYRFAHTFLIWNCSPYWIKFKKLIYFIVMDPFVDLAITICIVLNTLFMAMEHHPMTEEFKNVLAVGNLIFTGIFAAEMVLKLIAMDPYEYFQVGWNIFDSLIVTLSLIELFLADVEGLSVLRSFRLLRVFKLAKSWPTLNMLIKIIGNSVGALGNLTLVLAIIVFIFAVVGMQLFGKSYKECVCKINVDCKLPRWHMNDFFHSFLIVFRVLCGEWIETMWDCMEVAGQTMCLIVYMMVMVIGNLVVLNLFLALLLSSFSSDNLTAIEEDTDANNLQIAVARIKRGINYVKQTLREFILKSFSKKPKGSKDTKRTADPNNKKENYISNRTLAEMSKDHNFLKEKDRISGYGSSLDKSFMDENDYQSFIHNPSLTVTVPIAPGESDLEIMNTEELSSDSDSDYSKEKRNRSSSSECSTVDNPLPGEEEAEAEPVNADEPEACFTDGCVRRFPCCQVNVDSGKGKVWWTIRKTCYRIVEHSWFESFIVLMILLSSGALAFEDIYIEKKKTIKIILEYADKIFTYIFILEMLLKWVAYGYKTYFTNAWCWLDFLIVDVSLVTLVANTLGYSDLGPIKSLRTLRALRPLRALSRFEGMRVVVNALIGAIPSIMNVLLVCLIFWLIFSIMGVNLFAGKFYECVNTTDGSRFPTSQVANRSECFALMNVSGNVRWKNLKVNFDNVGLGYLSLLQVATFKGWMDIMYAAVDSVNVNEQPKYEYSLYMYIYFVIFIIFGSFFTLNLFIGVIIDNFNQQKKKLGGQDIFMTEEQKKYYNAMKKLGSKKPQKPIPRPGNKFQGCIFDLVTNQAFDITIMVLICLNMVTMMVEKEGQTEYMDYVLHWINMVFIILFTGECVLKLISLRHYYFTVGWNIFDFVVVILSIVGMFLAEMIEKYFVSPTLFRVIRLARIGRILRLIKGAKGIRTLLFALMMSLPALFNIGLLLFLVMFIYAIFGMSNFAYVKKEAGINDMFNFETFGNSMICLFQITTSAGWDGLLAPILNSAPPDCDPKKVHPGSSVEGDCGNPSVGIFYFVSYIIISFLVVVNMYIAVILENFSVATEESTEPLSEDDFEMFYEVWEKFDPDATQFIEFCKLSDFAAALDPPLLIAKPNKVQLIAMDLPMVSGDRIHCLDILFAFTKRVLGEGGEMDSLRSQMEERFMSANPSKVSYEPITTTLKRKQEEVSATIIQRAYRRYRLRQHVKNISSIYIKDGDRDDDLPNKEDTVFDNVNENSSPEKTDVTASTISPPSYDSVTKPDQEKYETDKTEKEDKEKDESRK
T2 sequence (Q00954 19-218 partner): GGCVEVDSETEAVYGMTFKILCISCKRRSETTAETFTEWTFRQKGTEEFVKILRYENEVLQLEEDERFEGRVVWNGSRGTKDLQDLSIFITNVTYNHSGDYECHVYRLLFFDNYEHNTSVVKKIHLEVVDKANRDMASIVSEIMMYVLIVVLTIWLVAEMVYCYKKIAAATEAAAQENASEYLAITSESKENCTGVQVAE

CC(C)C[C@@H]1NC(=O)[C@@H](NC(=O)[C@H](C)N)CSSC[C@@H]2NC(=O)[C@@H]3CSSC[C@@H](C(=O)N[C@@H](CCCNC(=N)N)C(=O)N[C@@H](Cc4ccc(O)cc4)C(=O)N[C@@H](CCCCN)C(=O)N[C@@H](CC(C)C)C(=O)N[C@@H](Cc4ccccc4)C(=O)O)NC(=O)[C@H](Cc4c[nH]c5ccccc45)NC(=O)[C@@H]4CCCN4C(=O)[C@H](Cc4ccc(O)cc4)NC(=O)[C@H](CCCCN)NC(=O)[C@H](Cc4c[nH]c5ccccc45)NC(=O)[C@H](CCC(=O)O)NC(=O)[C@H](CSSC[C@H](NC(=O)[C@H](CO)NC(=O)[C@H](CC(=O)O)NC(=O)[C@H](Cc4c[nH]c5ccccc45)NC(=O)[C@H](CCC(N)=O)NC(=O)CNC1=O)C(=O)N[C@@H](CC(=O)O)C(=O)N1CCC[C@H]1C(=O)N[C@@H](CCCCN)C(=O)N[C@@H](C)C(=O)N[C@@H](CO)C(=O)N[C@@H](CCCCN)C(=O)N3)NC(=O)[C@H](C)NC(=O)[C@H](Cc1ccc(O)cc1)NC(=O)[C@H](CC(N)=O)NC(=O)[C@@H]1CCCN1C2=O [PhlTx1, Phlotoxin-1] (H-ACLGQWDSCDPKASKCCPNYACEWKYPWCRYKLF-OH; disulfide 2-17, 9-22, 16-29; N-terminus and C-terminus assumed)
IC50 (hNav1.4): > 3000 nM | inhibition at 1 µM (Nav1.7/β1; 1 µM, holding −90 mV, oocytes TEVC, clone rPN1, read-out: inhibition of inward currents): 90 ± 7% | IC50 (Nav1.7/β1; Xenopus laevis oocytes, stimulus frequency 0.3 Hz, Hill equation fit, n = 4, 0.1% BSA): 260 ± 46 nM | Hill coefficient (Nav1.7/β1; Xenopus laevis oocytes, stimulus frequency 0.3 Hz, n = 4): 1.3 | reversibility of block (hNav1.7): partially and poorly reversible | maximum recovery of the blocked current (hNav1.7; after 16 min of washout of 100 nM PhlTx1, n = 5 cells): ≤ 32% | time constant of recovery from block (hNav1.7; washout of 100 nM PhlTx1, n = 5 cells): 303 s | IC50 (hNav1.6): > 3000 nM | IC50 (human Nav1.7 channel): 250 nM
